The test system of assay [1] is PANC-1. The assay can be described thus: Anticancer activity against human PANC1 cells. It counts as functional, cell-based.
The subject of assay [2] is PANC-1. The assay can be described thus: Cytotoxicity against human PANC1 cells assessed as decrease in cell viability after 72 hrs by MTT assay. The format is functional, cell-based. The following applies: PANC-1, 72 h.

In the case of `COC(=O)c1ccc2c(c1)nc(NC(=O)c1ccccc1)n2CCCc1ccccc1`, the IC50 with PANC-1 [1] came to 5 µM. For `CCN(CC)CCNC(=O)c1ccc(NCCN2C(=O)c3ccccc3C2=O)cc1`, the IC50 with PANC-1 [2] turned out to be 5 µM.
